Test results published in patent US7348350B2, “Pyrazolyl biphenyl carboxamides and the use thereof for controlling undesirable microorganisms” (Bayer CropScience AG, priority 2000, dated 2008).

Key:
[1] = test system: Gloeophyllum trabeum, Coniophora puteana, Poria placenta, Lentinus tigrinus and Coriolus versicolor; assay: Inhibition test on giant colonies of Basidiomycetes; type: cell-based; details: 6 ppm active compound in malt extract peptone agar, 26° C.; read-out: % efficacy (percent inhibition of hyphal growth)
Description: Inhibition Test on Giant Colonies of Basidiomycetes Mycelium sections were removed from colonies of Gloeophyllum trabeum, Coniophora puteana, Poria placenta, Lentinus tigrinus and Coriolus versicolor and incubated on an agar medium containing malt extract peptone at 26° C. The inhibition of hyphal growth on active-compound-containing media was compared with the longitudinal growth on media without an addition of active compound and rated as percent inhibition.

Puccinia recondita = assay: Puccinia test (wheat)/protective; type: in vivo; details: protective, application rate 250 g/ha, evaluation 10 days after inoculation
Description: (§1) To produce a suitable preparation of active compound, 1 part by weight of active compound is mixed with the stated amounts of solvent and emulsifier, and the concentrate is diluted with water to the desired concentration.
To test for protective activity, young plants are sprayed with the preparation of active compound at the stated application rate. After the spray coating has dried on, the plants are sprayed with a conidia suspension of Puccinia recondita. The plants remain in an incubation cabin at 20° C. and 100% relative atmospheric humidity for 48 hours.
The plants are then placed in a greenhouse at a temperature of approximately 20° C. and a relative atmospheric humidity of 80% to promote the development of rust pustules.
(§2) Evaluation is carried out 10 days after the inoculation. 0% means an efficacy which corresponds to that of the control, whereas an efficacy of 100% means that no infection is observed.

Venturia inaequalis = assay: Venturia test (apple)/protective; type: in vivo; details: 288 h, protective, application rate 100 g/ha, evaluation 12 days after inoculation, read-out: % efficacy
Description: To produce a suitable preparation of active compound, 1 part by weight of active compound is mixed with the stated amount of solvent and emulsifier, and the concentrate is diluted with water to the desired concentration.
To test for protective activity, young plants are sprayed with the preparation of active compound at the stated application rate. After the spray coating has dried on, the plants are inoculated with an aqueous conidia suspension of the apple scab pathogen Venturia inaequalis and then remain in an incubation cabin at approximately 20° C. and 100% relative atmospheric humidity for 1 day.
The plants are then placed in a greenhouse at approximately 21° C. and a relative atmospheric humidity of approximately 90%.
Evaluation is carried out 12 days after the inoculation. 0% means an efficacy which corresponds to that of the control, whereas an efficacy of 100% means that no infection is observed.

Alternaria solani = assay: Alternaria test (tomato)/protective; type: in vivo; details: protective, application rate 750 g/ha, evaluation 7 days after inoculation
Description: as §1
To test for protective activity, young tomato plants are sprayed with the preparation of active compound at the stated application rate. 1 day after the treatment, the plants are inoculated with a spore suspension of Alternaria solani and then remain at 100% rel. humidity and 20° C. for 24 h. The plants then remain at 96% rel. atmospheric humidity and a temperature of 20° C.
Evaluation is carried out 7 days after the inoculation. 0% means an efficacy which corresponds to that of the control, whereas an efficacy of 100% means that no infection is observed.

Podosphaera leucotricha = assay: Podosphaera test (apple)/protective; type: in vivo; details: 240 h, protective, application rate 100 g/ha, evaluation 10 days after inoculation, read-out: % efficacy
Description: as §1
(§3) To test for protective activity, young plants are sprayed with the preparation of active compound at the stated application rate. After the spray coating has dried on, the plants are inoculated with an aqueous spore suspension of the apple mildew pathogen Podosphaera leucotricha. The plants are then placed in a greenhouse at approximately 23° C. and a relative atmospheric humidity of approximately 70%.
as §2

Sphaerotheca fuiginea = assay: Sphaerotheca test (cucumber)/protective; type: in vivo; details: Cucumis sativus, 240 h, protective, application rate 100 g/ha, evaluation 10 days after inoculation, read-out: % efficacy
Description: as §1
as §3, with “Sphaerotheca fuiginea.” for “the apple mildew pathogen Podosphaera leucotricha.”
as §2

[2] = logP by HPLC on reversed-phase column (C 18), EEC Directive 79/831 Annex V.A8; type: physicochemical; details: reversed-phase HPLC column (C 18); acidic range, pH 2.3, 0.1% aqueous phosphoric acid and acetonitrile, 43° C. (marked a)
Description: The logP values given in the Preparation Examples and Tables above were determined in accordance with EEC Directive 79/831 Annex V.A8 by HPLC (High Performance Liquid Chromatography) on a reversed-phase column (C 18). Temperature: 43° C.
In the acidic range, the determination was carried out at pH 2.3 using the mobile phases 0.1% aqueous phosphoric acid and acetonitrile; linear gradient from 10% acetonitrile to 90% acetonitrile (marked ^a) in the Table).
In the neutral range, the determination was carried out at pH 7.5 using the mobile phases 0.01 molar aqueous phosphate buffer solution and acetonitrile; linear gradient from 10% acetonitrile to 90% acetonitrile (marked ^b) in the Table).

CO/N=C/c1ccc(-c2ccccc2NC(=O)c2c(C)nn(C)c2F)cc1 [Example 1, 5-fluoro-N-{4′-[(methoxyimino)methyl]-1,1′-biphenyl-2-yl}-1,3-dimethyl-1H-pyrazole-4-carboxamide]
Emax at 6 ppm [1]: 100% | % efficacy (Puccinia recondita): 100% | pest or weed control at 100 g/ha (Venturia inaequalis): 100% | % efficacy (Alternaria solani): 95% | pest or weed control at 100 g/ha (Podosphaera leucotricha): 100% | pest or weed control at 100 g/ha (Sphaerotheca fuiginea): 100%

CO/N=C/c1ccc(-c2ccccc2NC(=O)c2c(C)nn(C)c2F)cc1F [Example 3, 5-fluoro-N-{3′-fluoro-4′-[(methoxyimino)methyl]-1,1′-biphenyl-2-yl}-1,3-dimethyl-1H-pyrazole-4-carboxamide]
Emax at 6 ppm [1]: 100% | % efficacy (Puccinia recondita): 100%

CO/N=C(\C)c1ccc(-c2ccccc2NC(=O)c2c(C)nn(C)c2F)cc1 [Example 4, 5-fluoro-N-[4′-(N-methoxyethaneimidoyl)-1,1′-biphenyl-2-yl]-1,3-dimethyl-1H-pyrazole-4-carboxamide]
Emax at 6 ppm [1]: 100% | % efficacy (Alternaria solani): 90%

CO/N=C/c1ccc(-c2cccc(F)c2NC(=O)c2c(C)nn(C)c2F)cc1 [Example 9]
Emax at 6 ppm [1]: 100% | % efficacy (Puccinia recondita): 100% | chromatographic logP [2]: 2.51
